Experimental data from patent US10195282B2, “Use of alginate formulation for intraincisional drug delivery” (UNIVERSITY OF SOUTHERN CALIFORNIA, priority 2014, dated 2019).
Non-standard residues stand in square brackets, D forms with d. Residues, ends and D or L forms follow the SMILES beside them. Nle = CCCC[C@H](N)C(=O)O

Test system: full thickness incision wounds in a rat model
Test: Scar formation dose-response of NorLeu3-A(1-7) in 2.5% alginate crosslinked with 5 mM CaCl2 (Example 3)
Format: in vivo, Sprague Dawley rats
Conditions: 1 mg/ml in the formulation; compared with surgical and vehicle controls; day 21
Protocol: This example was designed to determine the formation and remodeling of scar by clinical and histological evaluations in full thickness incision wounds in a rat model. Various doses of active ingredient were delivered in 2.5% alginate crosslinked with 5 mM CaCl2. • Species: • Sprague Dawley • Female (n=5/group for histology; 3/group for tensile strength) • Parameters Measured: • Appearance of Healing Wound (Gross and Histological of Dense Collagen by Image J) • Tensile Strength • Central, Blinded Adjudication of Photos on Day 21 • Photographic serial imaging • Experimental Groups: Surgical control, vehicle (2.5% alginate crosslinked with 5 mM CaCl2) and 2.5% alginate crosslinked with 5 mM CaCl2 with 0.3, 1, 3 or 5 mg/ml DSC127) Methods
Alginate was supplied by FMC BioPolymer. […]
During the experimental period, Sprague Dawley rats, 200-225 grams, were housed one per cage and maintained in a central animal care facility with a 12-hour light/dark cycle. […] The six tests groups that were evaluated are: surgical control, vehicle control and 30, 100, 300 or 500 μg/wound of NorLeu3-A(1-7) in the vehicle. […] The animals were monitored for breathing, urination and movement during the postoperative interval. […] During the first two weeks after surgery, scabbing, dehiscence and inflammation were assessed. […]
Scabbing was assessed on a 4-point scale (0,1,2,3) for none, mild, moderate and severe, respectively. […]

With `CCCC[C@H](NC(=O)[C@H](CCCNC(=N)N)NC(=O)[C@@H](N)CC(=O)O)C(=O)N[C@@H](Cc1ccc(O)cc1)C(=O)N[C@H](C(=O)N[C@@H](Cc1c[nH]cn1)C(=O)N1CCC[C@H]1C(=O)O)[C@@H](C)CC` [NorLeu3-A(1-7), Asp-Arg-Nle-Tyr-Ile-His-Pro] (H-DR[Nle]YIHP-OH; N-terminus and C-terminus assumed) the “Inflammation at the site of the incision scored on histological sections” value was “trend towards reduced inflammation”.
